Assay results from patent US20220378854A1, “COMPOSITION FOR PREVENTING, TREATING, OR IMPROVING GASTROINTESTINAL DISEASES COMPRISING STRAIN OF GENUS CORYNEBACTERIUM AND CULTURE THEREOF” (CJ CheilJedang Corporation, priority 2019, published 2022).

What was measured:
[1] = test system: WIRS rats; assay: SRMD improving efficacy in WIRS rats (gross lesion index, pathologic scores); type: in vivo, rat; conditions: oral 8 hours before WIRS; L-Thr 0.15% by weight/diet; WIRS 6 hours
Method: (§1) 110 SD rats in total were purchased from Charles River (Osaka, Japan) and stored in an animal facility. The experimental animals were handled in the authorized animal facility according to AAALAC International Animal Care Policies. The animals were fasted 24 hours prior to be exposed to WIRS, and water was freely available. 10 rats of each group were placed in a cage for WIRS and immersed in water for 6 hours.
(§2) They were divided into a untreated group in which nothing was treated after oral administration of saline solution ([…], animal experimental group 1), WIRS Group in which WIRS was applied for 6 hours ([…], animal experimental group 2), and animal experimental groups in which feed containing Sample 1 (prepared in Example 8) of 0.15% by weight (animal experimental group 3) and feed containing Sample 3 (prepared in Example 8) of 0.21% by weight (animal experimental group 4) were orally treated by 30 mg/kg body, respectively, 8 hours before WIRS treatment. The content of L-Thr (L-threonine) in the feed of the animal experimental groups 3 and 4 was set to 0.15% by weight/diet equally.
All experimental animals (rat) were sacrificed with a high dose of anesthetic (thiopental sodium, 50 mg/kg) after 6 hours of WIRS. The animal experimental groups 1-4 disclosed in the following Examples 10 to 12 mean the animal experimental groups 1-4 of the Table 5, and in FIG. 7a to FIG. 10, Groups 1-4 mean the animal experimental groups 1-4 of Table 5.
The stomach of the rat sacrificed in Example 9 was incised and opened along the larger curvature, and then washed with cold PBS solution. After determining the number and size of erosions or ulcers by enlarged photographs, the half was anatomized for anatomical observation. The incised stomach was spread over plastic sheet and fixed in 10% buffer formalin for 4 hours and used for production of a paraffin tissue slide, and the other half was stored in a liquid nitrogen tank for molecular biological observation. In addition, the mucosal homogenate was stored by mixing the same animal experimental groups.
The stomach sample was observed using […] naked eyes (FIG. 7a), and in the control group and each experimental group (animal experimental groups 1-4), gross lesion index, inflammation; pathologic score, ulcer/erosion; pathologic score, regeneration; pathologic score were calculated and shown in FIG. 7b.

[2] = test system: WIRS rats; assay: p-IκBα, p-ERK, p-JNK protein level in gastric mucosa of WIRS rats (western blot); type: in vivo, rat; conditions: oral 8 hours before WIRS, WIRS 6 hours
Method: as §2
(§3) In addition, in each of the animal experimental groups 1-4, the protein level of p-IκBα, p-ERK, and p-JNK was measured and shown in FIG. 8c and FIG. 8d. Specifically, to perform western blot for measuring the protein level, the collected gastric mucosa was homogenized in ice-cold 20 mM Tris-HCl buffer (pH 7.5) containing 2 mM EDTA (ethylenediaminetetraacetic acid), 0.5 mM EGTA (ethylene glycol tetraacetic acid), 300 mM sucrose, and 2 mM PMSF (phenylmethylsulfonyl fluoride) with a tissue homogenator. […] The immune complex was detected using ECL detection kit (Amersham Biosciences Korea, Seoul, Korea) and X-ray film was automatically irradiated. […]

[3] = test system: WIRS rats; assay: apoptosis on the gastric mucosa of WIRS rats (TUNEL, apoptotic index); type: in vivo, rat; conditions: oral 8 hours before WIRS; WIRS 6 hours
Method: as §2
Specifically, apoptosis was visualized using TdT FragEL DNA fragmentation detection kit (Oncogene Research Products, Cambridge, Mass.) and TUNEL (Terminal deoxynucleotidyl transferase-mediated nick end labeling) method. To measure AI (apoptotic index) by finding a region in which apoptosis occurs in a large quantity (apoptotic hot spot) in each experimental group, TUNEL-immunostained section (terminal deoxynucleotidyl transferase mediated dUTP nick-end labeling (TUNEL)-immunostained section) was enlarged 100 folds and scanned. Then, the number of TUNEL-positive cells was counted in 400 fields to record AI. […]

[4] = test system: WIRS rats; assay: apoptosis proteins in WIRS rats (western blot); type: in vivo, rat; conditions: oral 8 hours before WIRS; WIRS 6 hours
Method: as §2
In addition, in each of the animal experimental groups 1-4, the protein level of p-IκBα, p-ERK, and p-JNK was measured and shown in FIG. 8c and FIG. 8d. Specifically, to perform western blot for measuring the protein level, the collected gastric mucosa was homogenized in ice-cold 20 mM Tris-HCl buffer (pH 7.5) containing 2 mM EDTA (ethylenediaminetetraacetic acid), 0.5 mM EGTA (ethylene glycol tetraacetic acid), 300 mM sucrose, and 2 mM PMSF (phenylmethylsulfonyl fluoride) with a tissue homogenator. After electrophoresis of protein of 30 μg in 8% SDS-PAGE (sodium dodecyl sulfate-polyacrylamide gel electrophoresis) gel, it was transferred to PVDF (polyvinylidene fluoride) membrane using a semidry transfer system (Hoefer, Holliston, Mass., USA). Non-specific binding was blocked by incubation with 5% non-fat dry milk. The membrane was thermostatically incubated with a 500-fold diluted solution of a primary antibody at 4° C. overnight, and then incubated with an HRP (horseradish peroxidase) binding-secondary antibody diluted by 1:1000. The immune complex was detected using ECL detection kit (Amersham Biosciences Korea, Seoul, Korea) and X-ray film was automatically irradiated. Antibodies used for western blot were as follows. β-actin, iNOS (nitric oxide synthase), COX-2 (cyclooxygenase), P-JNK (phosphor-JNK), P-ERK (phosphor-ERK), Bcl-2 (B-cell lymphoma 2), Bax (B-cell lymphoma-2-associated X-protein), and cyclin D1 antibodies were purchased from Santa Cruz Biotechnology (Santa Cruz, Calif.). p-IκBα (phosphorylated inhibitor of kappa B alpha), p-STAT3 (phosphorylated signal transducer and activator of transcription 3), PARP (poly(ADP-ribose) polymerase), CDK4 (cyclin-dependent kinase 4), and CDK2 (cyclin dependent kinase 2) were purchased from Cell Signaling Technology (Beverly, Mass.). HO-1 (A heme oxygenase-1) antibody was purchased from Enzo life Sciences (Farmingdale, N.Y.). […]

[5] = test system: WIRS rats; assay: WIRS rat model, stomach observed by naked eyes (gastrorrhagia); type: in vivo; conditions: oral, 8 hours before WIRS; same threonine 0.15% by weight/diet; WIRS 6 hours
Method: as §1
Sample 1 to Sample 5 prepared in Example 8 were orally administered to rats 8 hours before WIRS treatment, so that the same amount of threonine was administered (0.15% by weight/diet), and after applying WIRS for 6 hours, the animals were sacrificed and the stomach was extracted and incised and contents were removed, and a picture of the inner surface of the stomach was taken and this was shown in FIG. 11.

[6] = test system: WIRS rats; assay: CDK4 and Cyclin D1 protein in WIRS rats; type: in vivo, rat; conditions: oral 8 hours before WIRS; WIRS 6 hours
Method: as §2, §3

[7] = test system: WIRS rats; assay: mucin content in stomach tissue of WIRS rats by PAS staining; type: in vivo, rat; conditions: oral 8 hours before WIRS, WIRS 6 hours
Method: as §2
In the stomach tissue of the animal experimental groups 1 to 4, the mucin content was confirmed by PAS staining, and the result was shown in FIG. 10.

[8] = test system: WIRS rats; assay: mRNA expression of inflammation mediators and PDGF in WIRS rats; type: in vivo, rat; conditions: oral 8 hours before WIRS; L-Thr 0.15% by weight/diet; WIRS 6 hours
Method: as §2
Since SRMD was physiologically related to ischemic-reperfusion damage, in the animal experimental groups 1 to 4, mRNA expression of angiogenesis growth factors including PDGF (platelet-derived growth factor) and mRNA expression of inflammation mediators, iNOS, TNF-α, IFN-γ, and PDGF were measured, and the result was shown in FIG. 8a and FIG. 8b.
Specifically, the total RNA was extracted using RNeasy Mini kit (Qiagen Korea, Seoul, Korea). Amplification was analyzed using 10× reaction buffer (Promega Korea, Seoul, Korea), 1.5 mM/L MgCl2, […] deoxynucleotide triphosphate (dNTP), each primer […], and Taq DNA polymerase (Promega) 2.5 unit, using Perkin-Elmer GeneAmp PCR System 2400. Each cycle was composed of denaturation at 95° C. for 1 minute, annealing at 55° C. for […], and amplification at 72° C. for 45 seconds.

C[C@@H](O)[C@H](N)C(=O)O [Sample 1, threonine]
SRMD (erosions, hemorrhage, ulcers), stomach observation [1]: significantly improved | gross lesion index [1]: significantly (p<0.05) improved | inflammation; pathologic score [1]: significantly (p<0.05) improved | regeneration; pathologic score [1]: significantly (p<0.05) improved | ulcer/erosion; pathologic score [1]: significantly (p<0.05) improved | p-ERK activation (signaling) [2]: partially inactivated | p-JNK activation (signaling) [2]: partially inactivated | apoptosis level on the gastric mucosa (TUNEL) [3]: significantly reduced | Bax expression [4]: significantly reduced | PARP division [4]: significantly reduced | cleaved caspase-3 expression [4]: significantly reduced | cleaved caspase-8 expression [4]: significantly reduced | degree of gastrorrhagia reduced (therapeutic effect of gastric ulcer), rank order [5]: Sample 1<Sample 5<Sample 4<Sample 3 or Sample 2 | expression of CDK4 [6]: significantly reduced | expression of Cyclin D1 [6]: significantly reduced | gastric mucin / mucus expression (PAS staining) [7]: significantly preserved | IFN-γ mRNA expression [8]: significantly reduced | PDGF mRNA expression [8]: significantly reduced | TNF-α mRNA expression [8]: significantly reduced | iNOS mRNA expression [8]: significantly reduced
